Experimental data as given in patent US20050239656A1, “Pyridine compounds or salts thereof and herbicides containing the same” (priority 2002, published 2005).

Tested on: barnyardgrass
Test: Test Example 1: foliage treatment, upland pot test
Assay type: in vivo, Echinochloa crus-galli L.
Settings: active ingredient 500 g/ha, observed 18th to 23rd day, 0 = non-treated, 100 = complete kill
In short: (§1)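 Upland pot test, foliar. Soybean 0.1–0.4 / wheat 1.3–2.4 / rice 1.2–2.6 / barnyardgrass 1.3–2.8 leaf stage at spraying; 500 L/ha carrier, 0.1% (v/v) spreader. Visual % control, 0 untreated to 100 dead, days 18–23.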

Structure (SMILES)	Growth controlling degree (%) Barnyardgrass [%]
Cc1ccc(OC(C)C(=O)N(C)C(c2cnccc2C(F)(F)F)C(C)C)cc1 (mixture of isomers) [I-131]	70
CC(C)C(=O)N(C)C(c1cnccc1C(F)(F)F)C(C)C (stereo not shown) [I-198]	70

Tested on: crabgrass
Test: Test Example 1: foliage treatment, upland pot test
Assay type: in vivo, Digitaria sanguinalis L.
Settings: active ingredient 500 g/ha, observed 18th to 23rd day, 0 = non-treated, 100 = complete kill

Structure (SMILES)	Growth controlling degree (%) Crabgrass [%]
Cc1ccc(OC(C)C(=O)N(C)C(c2cnccc2C(F)(F)F)C(C)C)cc1 (mixture of isomers) [I-131]	80
CC(C)C(=O)N(C)C(c1cnccc1C(F)(F)F)C(C)C (stereo not shown) [I-198]	80

Tested on: green foxtail
Test: Test Example 1: foliage treatment, upland pot test
Assay type: in vivo, Setaria viridis L.
Settings: active ingredient 500 g/ha, observed 18th to 23rd day, 0 = non-treated, 100 = complete kill

Structure (SMILES)	Growth controlling degree (%) Green foxtail [%]
Cc1ccc(OC(C)C(=O)N(C)C(c2cnccc2C(F)(F)F)C(C)C)cc1 (mixture of isomers) [I-131]	70
CC(C)C(=O)N(C)C(c1cnccc1C(F)(F)F)C(C)C (stereo not shown) [I-198]	60

Tested on: redroot pigweed
Test: Test Example 1: foliage treatment, upland pot test
Assay type: in vivo, Amaranthus retroflexus L.
Settings: active ingredient 500 g/ha, observed 18th to 23rd day, 0 = non-treated, 100 = complete kill

Structure (SMILES)	Growth controlling degree (%) Redroot pigweed [%]
Cc1ccc(OC(C)C(=O)N(C)C(c2cnccc2C(F)(F)F)C(C)C)cc1 (mixture of isomers) [I-131]	70
CC(C)C(=O)N(C)C(c1cnccc1C(F)(F)F)C(C)C (stereo not shown) [I-198]	70

Tested on: prickly sida
Test: Test Example 1: foliage treatment, upland pot test
Assay type: in vivo, Sida spinosa L.
Settings: active ingredient 500 g/ha, observed 18th to 23rd day, 0 = non-treated, 100 = complete kill

Structure (SMILES)	Growth controlling degree (%) Prickly sida [%]
Cc1ccc(OC(C)C(=O)N(C)C(c2cnccc2C(F)(F)F)C(C)C)cc1 (mixture of isomers) [I-131]	70
CC(C)C(=O)N(C)C(c1cnccc1C(F)(F)F)C(C)C (stereo not shown) [I-198]	70

Tested on: velvetleaf
Test: Test Example 1: foliage treatment, upland pot test
Assay type: in vivo, Abutilon theophrasti MEDIC.
Settings: active ingredient 500 g/ha, observed 18th to 23rd day, 0 = non-treated, 100 = complete kill

Structure (SMILES)	Growth controlling degree (%) Velvetleaf [%]
Cc1ccc(OC(C)C(=O)N(C)C(c2cnccc2C(F)(F)F)C(C)C)cc1 (mixture of isomers) [I-131]	50
CC(C)C(=O)N(C)C(c1cnccc1C(F)(F)F)C(C)C (stereo not shown) [I-198]	40

Tested on: rice
Test: Test Example 1: foliage treatment, upland pot test
Assay type: in vivo, Oryza sativa L.
Settings: crop, active ingredient 500 g/ha, observed 18th to 23rd day, 0 = non-treated, 100 = complete kill
In short: as §1

Structure (SMILES)	Growth controlling degree (%) Rice [%]
Cc1ccc(OC(C)C(=O)N(C)C(c2cnccc2C(F)(F)F)C(C)C)cc1 (mixture of isomers) [I-131]	30
CC(C)C(=O)N(C)C(c1cnccc1C(F)(F)F)C(C)C (stereo not shown) [I-198]	80

Tested on: wheat
Test: Test Example 1: foliage treatment, upland pot test
Assay type: in vivo, Triticum spp.
Settings: crop, active ingredient 500 g/ha, observed 18th to 23rd day, 0 = non-treated, 100 = complete kill
Source text: Upland field soil was put into a 1/170,000 ha pot, and seed of various plants were sown. Then, when the plants reached predetermined leaf stages ((1) barnyardgrass: 1.3 to 2.8 leaf stages, (2) crabgrass: 1.0 to 2.8 leaf stages, (3) green foxtail: 1.3 to 2.6 leaf stages, (4) redroot pigweed: 0.1 to 1.2 leaf stages, (5) prickly sida: 0.1 to 1.2 leaf stages, (6) velvetleaf: 0.1 to 1.2 leaf stages, (7) tall morningglory: 0.1 to 1.5 leaf stages, (8) rice: 1.2 to 2.6 leaf stages, (9) wheat: 1.3 to 2.4 leaf stages, (10) corn, 2.1 to 3.2 leaf stages, (11) soybean: 0.1 to 0.4 leaf stage), a wettable powder or emulsifiable concentrate having the compound of the present invention formulated in accordance with a usual formulation method, was weighed so that the active ingredient would be a predetermined amount, and diluted with water in an amount of 500 L/ha. To the diluted solution, 0.1% (v/v) of agricultural spreader was added. The herbicide thus adjusted was applied by a small size sprayer for foliage treatment. On the 18th to 23rd days after the application of the herbicide, the growth of the respective plants was visually observed, and the herbicidal effects were evaluated by the growth controlling degrees (%) ranging from 0 (equivalent to the non-treated plot) to 100 (complete kill), whereby the results shown in Table 3, were obtained.

Structure (SMILES)	Growth controlling degree (%) wheat [%]
Cc1ccc(OC(C)C(=O)N(C)C(c2cnccc2C(F)(F)F)C(C)C)cc1 (mixture of isomers) [I-131]	50
CC(C)C(=O)N(C)C(c1cnccc1C(F)(F)F)C(C)C (stereo not shown) [I-198]	70

Tested on: corn
Test: Test Example 1: foliage treatment, upland pot test
Assay type: in vivo, Zea mays L.
Settings: crop, active ingredient 500 g/ha, observed 18th to 23rd day, 0 = non-treated, 100 = complete kill
In short: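 In this upland pot foliage test, corn plants at 2.1 to 3.2 leaf stages were sprayed by a small size sprayer. The spray was a conventionally formulated wettable powder or emulsifiable concentrate weighed to a set active ingredient amount, diluted in water at 500 L/ha, plus 0.1% (v/v) agricultural spreader. Visual assessment on days 18 to 23 gave growth controlling degree (%), where 0 equals untreated and 100 means complete kill.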

Structure (SMILES)	Growth controlling degree (%) Corn [%]
Cc1ccc(OC(C)C(=O)N(C)C(c2cnccc2C(F)(F)F)C(C)C)cc1 (mixture of isomers) [I-131]	50
CC(C)C(=O)N(C)C(c1cnccc1C(F)(F)F)C(C)C (stereo not shown) [I-198]	70

Tested on: soybean
Test: Test Example 1: foliage treatment, upland pot test
Assay type: in vivo, Glycine max Merr.
Settings: crop, active ingredient 500 g/ha, observed 18th to 23rd day, 0 = non-treated, 100 = complete kill
In short: as §1

Structure (SMILES)	Growth controlling degree (%) Soybean [%]
Cc1ccc(OC(C)C(=O)N(C)C(c2cnccc2C(F)(F)F)C(C)C)cc1 (mixture of isomers) [I-131]	80
CC(C)C(=O)N(C)C(c1cnccc1C(F)(F)F)C(C)C (stereo not shown) [I-198]	60

Tested on: barnyardgrass
Test: Test Example 2: soil surface treatment, upland pot test
Assay type: in vivo, Echinochloa crus-galli L.
Settings: active ingredient 500 g/ha, observed 20th to 28th day
In short: (§2)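 A pre-emergence soil application: formulated compound at a predetermined active-ingredient dose, diluted in water to 1,500 L/ha, sprayed on upland soil a day after seeding in 1/170,000 ha pots; growth control rated visually, 0 (untreated level) to 100 (kill), at 20–28 days.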

Structure (SMILES)	Growth controlling degree (%) Barnyardgrass [%]
Cc1ccc(OC(C)C(=O)N(C)C(c2cnccc2C(F)(F)F)C(C)C)cc1 (mixture of isomers) [I-131]	100
CC(C)C(=O)N(C)C(c1cnccc1C(F)(F)F)C(C)C (stereo not shown) [I-198]	100

Tested on: crabgrass
Test: as above
Assay type: in vivo, Digitaria sanguinalis L.
Settings: active ingredient 500 g/ha, observed 20th to 28th day
In short: as §2

Structure (SMILES)	Growth controlling degree (%) Crabgrass [%]
Cc1ccc(OC(C)C(=O)N(C)C(c2cnccc2C(F)(F)F)C(C)C)cc1 (mixture of isomers) [I-131]	100
CC(C)C(=O)N(C)C(c1cnccc1C(F)(F)F)C(C)C (stereo not shown) [I-198]	100

Tested on: green foxtail
Test: as above
Assay type: in vivo, Setaria viridis L.
Settings: active ingredient 500 g/ha, observed 20th to 28th day
In short: as §2

Structure (SMILES)	Growth controlling degree (%) Green foxtail [%]
Cc1ccc(OC(C)C(=O)N(C)C(c2cnccc2C(F)(F)F)C(C)C)cc1 (mixture of isomers) [I-131]	100
CC(C)C(=O)N(C)C(c1cnccc1C(F)(F)F)C(C)C (stereo not shown) [I-198]	100

Tested on: redroot pigweed
Test: as above
Assay type: in vivo, Amaranthus retroflexus L.
Settings: active ingredient 500 g/ha, observed 20th to 28th day
In short: as §2

Structure (SMILES)	Growth controlling degree (%) Redroot pigweed [%]
Cc1ccc(OC(C)C(=O)N(C)C(c2cnccc2C(F)(F)F)C(C)C)cc1 (mixture of isomers) [I-131]	30
CC(C)C(=O)N(C)C(c1cnccc1C(F)(F)F)C(C)C (stereo not shown) [I-198]	80

Tested on: prickly sida
Test: as above
Assay type: in vivo, Sida spinosa L.
Settings: active ingredient 500 g/ha, observed 20th to 28th day
In short: as §2

Structure (SMILES)	Growth controlling degree (%) Prickly sida [%]
Cc1ccc(OC(C)C(=O)N(C)C(c2cnccc2C(F)(F)F)C(C)C)cc1 (mixture of isomers) [I-131]	60
CC(C)C(=O)N(C)C(c1cnccc1C(F)(F)F)C(C)C (stereo not shown) [I-198]	90

Tested on: velvetleaf
Test: as above
Assay type: in vivo, Abutilon theophrasti MEDIC.
Settings: active ingredient 500 g/ha, observed 20th to 28th day
In short: as §2

Structure (SMILES)	Growth controlling degree (%) Velvetleaf [%]
Cc1ccc(OC(C)C(=O)N(C)C(c2cnccc2C(F)(F)F)C(C)C)cc1 (mixture of isomers) [I-131]	0
CC(C)C(=O)N(C)C(c1cnccc1C(F)(F)F)C(C)C (stereo not shown) [I-198]	70

Tested on: rice
Test: as above
Assay type: in vivo, Oryza sativa L.
Settings: active ingredient 500 g/ha, observed 20th to 28th day
In short: as §2

Structure (SMILES)	Growth controlling degree (%) Rice [%]
Cc1ccc(OC(C)C(=O)N(C)C(c2cnccc2C(F)(F)F)C(C)C)cc1 (mixture of isomers) [I-131]	20
CC(C)C(=O)N(C)C(c1cnccc1C(F)(F)F)C(C)C (stereo not shown) [I-198]	98

Tested on: wheat
Test: as above
Assay type: in vivo, Triticum spp.
Settings: active ingredient 500 g/ha, observed 20th to 28th day
In short: as §2

Structure (SMILES)	Growth controlling degree (%) wheat [%]
Cc1ccc(OC(C)C(=O)N(C)C(c2cnccc2C(F)(F)F)C(C)C)cc1 (mixture of isomers) [I-131]	20
CC(C)C(=O)N(C)C(c1cnccc1C(F)(F)F)C(C)C (stereo not shown) [I-198]	98

Tested on: corn
Test: as above
Assay type: in vivo, Zea mays L.
Settings: active ingredient 500 g/ha, observed 20th to 28th day
In short: as §2

Structure (SMILES)	Growth controlling degree (%) Corn [%]
Cc1ccc(OC(C)C(=O)N(C)C(c2cnccc2C(F)(F)F)C(C)C)cc1 (mixture of isomers) [I-131]	10
CC(C)C(=O)N(C)C(c1cnccc1C(F)(F)F)C(C)C (stereo not shown) [I-198]	70

Tested on: soybean
Test: as above
Assay type: in vivo, Glycine max Merr.
Settings: active ingredient 500 g/ha, observed 20th to 28th day
In short: as §2

Structure (SMILES)	Growth controlling degree (%) Soyabean [%]
Cc1ccc(OC(C)C(=O)N(C)C(c2cnccc2C(F)(F)F)C(C)C)cc1 (mixture of isomers) [I-131]	40
CC(C)C(=O)N(C)C(c1cnccc1C(F)(F)F)C(C)C (stereo not shown) [I-198]	90

Tested on: barnyardgrass
Test: Test Example 3: paddy pot test, application under submerged conditions
Assay type: in vivo, Echinochloa crus-galli L.
Settings: active ingredient 250 g/ha; submerged application at 0.5 leaf stage; visually observed 14 days after application; 0 = non-treated, 100 = complete kill
In short: (§3)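 Visual growth-control rating (0 = untreated, 100 = complete kill) 14 days after treatment. The formulated compound, as a diluted wettable powder or emulsifiable concentrate, went into 3–4 cm flood water at a predetermined active-ingredient dose once the weeds reached 0.5 leaf stage (wapato: primary leaf stage).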

Structure (SMILES)	Growth controlling degree (%) Barnyardgrass [%]
Cc1ccc(OC(C)C(=O)N(C)C(c2cnccc2C(F)(F)F)C(C)C)cc1 (mixture of isomers) [I-131]	100
CC(C)C(=O)N(C)C(c1cnccc1C(F)(F)F)C(C)C (stereo not shown) [I-198]	100

Tested on: japanese bulrush
Test: as above
Assay type: in vivo, Scirpus juncoides
Settings: active ingredient 250 g/ha; submerged application at 0.5 leaf stage; visually observed 14 days after application; 0 = non-treated, 100 = complete kill
In short: as §3

Structure (SMILES)	Growth controlling degree (%) Japanese bulrush [%]
Cc1ccc(OC(C)C(=O)N(C)C(c2cnccc2C(F)(F)F)C(C)C)cc1 (mixture of isomers) [I-131]	95
CC(C)C(=O)N(C)C(c1cnccc1C(F)(F)F)C(C)C (stereo not shown) [I-198]	100

Tested on: rice (var. Nihonbare)
Test: Test Example 3: paddy pot test, transplanted rice
Assay type: in vivo, Oryza sativa L.
Settings: active ingredient 250 g/ha, applied 4th day after transplantation, visually observed 21st day after application, 0 = non-treated, 100 = complete kill
In short: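 Rice (var. Nihonbare) at 2 leaf stage transplanted 3 cm deep into puddled paddy soil under 3–4 cm flooding; on day 4 after transplanting, diluted wettable powder or emulsifiable concentrate applied by pipette under submerged conditions at a set active-ingredient dose. Growth scored visually 21 days after application, 0 (untreated) to 100 (complete kill) %.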

Structure (SMILES)	Growth controlling degree (%) Rice [%]
Cc1ccc(OC(C)C(=O)N(C)C(c2cnccc2C(F)(F)F)C(C)C)cc1 (mixture of isomers) [I-131]	10
CC(C)C(=O)N(C)C(c1cnccc1C(F)(F)F)C(C)C (stereo not shown) [I-198]	60
